According to patent US20190233884A1 (University of Southern California, priority 2016, published 2019):

Test system: patients with refractory metastatic colorectal cancer (mCRC)
Test: PFS, OS and disease control in the training (evaluation) cohort of refractory mCRC patients receiving TAS-102 (n=52, Japan), by baseline characteristics, SNP genotype and toxicity
Format: in vivo, human
Details: for OS HR (95% CI)‡ / PFS HR (95% CI) ‡: multivariable; for OS HR (95% CI)† / PFS HR (95% CI) † / OS HR (95% CI) / PFS HR (95% CI): univariate
Description: All patients underwent the treatment in salvage-line setting. […]
(§1) Genomic DNA was extracted from peripheral whole blood in patients of all cohorts using the QIAmp Kit (Qiagen, Valencia, Calif., USA) according to the manufacturer's protocol (www.qiagen.com). The candidate SNPs were genotyped using PCR-based direct DNA sequence analysis by ABI 3100A Capillary Genetic Analyzer and Sequencing Scanner v1.0 (Applied Biosystems). Amplification of extracted DNA was carried out using both forward and reverse primers for each gene polymorphism as shown in Table 1. […] The investigators analyzing SNPs were blinded to the clinical data of the study patients.
The primary endpoint in this study was progression-free survival (PFS), and the secondary endpoints were overall survival (OS) and disease control rate (DCR). PFS was calculated from the date of starting treatment to the first observation of disease progression or death from any cause. If a patient had no disease progression or death, PFS was censored at the date of last follow up. OS was calculated from the date of starting treatment until the date of death from any cause or the date of the last follow-up, at which point OS was censored. The disease control rate (DCR) was defined as the proportion of patients who achieved a stable disease (SD) or […] according to RECISTv1.1. Chi-square test was used to examine the difference in baseline patient characteristics among the three cohorts. Allelic distribution of all SNPs by ethnicity for deviation from Hardy-Weinberg equilibrium and the allelic frequencies of SNPs were tested using the Chi-square tests with one degree of freedom. The associations between candidate SNPs and disease control, and toxicities were examined using contingency tables and Fisher's exact test. The associations of SNPs with PFS and OS were analysed using Kaplan-Meier curves and the log-rank test. Because the true mode of inheritance of candidate SNPs was not established yet, a codominant or dominant genetic model if appropriate was considered.
All patients underwent the treatment in salvage-line setting. […] In all patients, adverse events were graded according to the Common Terminology Criteria for Adverse Events, version 4.0. […]
as §1, with “tested” for “genotyped”, “Biosystems).” for “Biosystems). Amplification of extracted DNA was carried out using both forward and reverse primers for each gene polymorphism as shown in Table 1.”, “data.” for “data of the study patients.”
The primary endpoint in this study was progression-free survival (PFS), and the secondary endpoints were overall survival (OS) and disease control rate (DCR).

[1] = Che1 rs1564796 T/C and C/C grouped together
[2] = Che1 rs1564796 T/C and C/C grouped vs T/T
[3] = Evaluation cohort, Anemia grade <3
[4] = Evaluation cohort, Anemia grade ≥3
[5] = Evaluation cohort, Anemia grade ≥3 vs <3
[6] = Evaluation cohort, Anorexia grade <3
[7] = Evaluation cohort, Anorexia grade ≥3
[8] = Evaluation cohort, Anorexia grade ≥3 vs <3
[9] = Evaluation cohort, Diarrhea grade <3
[10] = Evaluation cohort, Diarrhea grade ≥3
[11] = Evaluation cohort, Diarrhea grade ≥3 vs <3
[12] = Evaluation cohort, Leukopenia grade <3
[13] = Evaluation cohort, Leukopenia grade ≥3
[14] = Evaluation cohort, Leukopenia grade ≥3 vs <3
[15] = Evaluation cohort, Nausea grade <3
[16] = Evaluation cohort, Nausea grade ≥3
[17] = Evaluation cohort, Nausea grade ≥3 vs <3
[18] = Evaluation cohort, Neutropenia grade <3
[19] = Evaluation cohort, Neutropenia grade ≥3
[20] = Evaluation cohort, Neutropenia grade ≥3 vs <3
[21] = FANCD2 rs6792811 G/A and G/G grouped together
[22] = FANCD2 rs6792811 G/A and G/G grouped vs A/A

Trifluridine/tipiracil [TAS-102]
OS HR (95% CI)‡ (CHEK2 rs22236142 G/C vs G/G): 0.55 (0.19, 1.58) | PFS HR (95% CI) ‡ (CHEK2 rs22236142 G/C vs G/G): 1.13 (0.55, 2.34) | OS HR (95% CI)† (CHEK2 rs22236142 G/C vs G/G): 0.78 (0.29, 2.11) | PFS HR (95% CI) † (CHEK2 rs22236142 G/C vs G/G): 1.43 (0.72, 2.84) | OS median, months (95% CI) (CHEK2 rs22236142 G/G): 8.1 (4.4, 14.8+) months | PFS median, months (95% CI) (CHEK2 rs22236142 G/G): 2.9 (1.6, 4.9) months | OS median, months (95% CI) (Che1 rs1045056 T/C): 12.4 (5.3, 12.4+) months | PFS median, months (95% CI) (Che1 rs1045056 T/C): 2.1 (1.2, 4.2) months | OS HR (95% CI)‡ (Che1 rs1045056 T/C vs T/T): 0.60 (0.19, 1.85) | PFS HR (95% CI) ‡ (Che1 rs1045056 T/C vs T/T): 1.70 (0.80, 3.64) | OS HR (95% CI)† (Che1 rs1045056 T/C vs T/T): 0.55 (0.18, 1.63) | PFS HR (95% CI) † (Che1 rs1045056 T/C vs T/T): 1.25 (0.61, 2.57) | OS median, months (95% CI) (Che1 rs1045056 T/T): 7.2 (5.4, 15.6+) months | PFS median, months (95% CI) (Che1 rs1045056 T/T): 2.9 (1.9, 3.5) months | OS median, months (95% CI) [1]: 12.4 (5.3, 12.4+) months | PFS median, months (95% CI) [1]: 2.1 (1.2, 4.6) months | OS HR (95% CI)‡ [2]: 0.60 (0.19, 1.87) | PFS HR (95% CI) ‡ [2]: 1.41 (0.65, 3.07) | OS HR (95% CI)† [2]: 0.56 (0.19, 1.68) | PFS HR (95% CI) † [2]: 1.17 (0.57, 2.40) | OS median, months (95% CI) (Che1 rs1564796 T/T): 7.2 (5.4, 15.6+) months | PFS median, months (95% CI) (Che1 rs1564796 T/T): 2.9 (2.0, 3.5) months | OS median, months (95% CI) [3]: 8.3 (5.7, 15.6+) months | PFS median, months (95% CI) [3]: 2.5 (2.0, 3.4) months | OS median, months (95% CI) [4]: 6.3 (2.0, 14.8+) months | PFS median, months (95% CI) [4]: 3.4 (1.5, 6.0+) months | OS HR (95% CI) [5]: 1.87 (0.74, 4.74) | PFS HR (95% CI) [5]: 0.70 (0.32, 1.53) | OS median, months (95% CI) [6]: 8.1 (5.7, 12.4+) months | PFS median, months (95% CI) [6]: 2.9 (2.1, 3.4) months | OS median, months (95% CI) [7]: 8.7 (1.4, 15.6+) months | PFS median, months (95% CI) [7]: 2.7 (0.9, 11.3) months | OS HR (95% CI) [8]: 0.85 (0.27, 2.69) | PFS HR (95% CI) [8]: 0.67 (0.27, 1.69) | OS median, months (95% CI) [9]: 8.3 (6.3, 12.4) months | PFS median, months (95% CI) [9]: 2.5 (2.0, 3.4) months | OS median, months (95% CI) [10]: 5.7 (2.0, 14.8+) months | PFS median, months (95% CI) [10]: 2.9 (1.8, 6.0+) months | OS HR (95% CI) [11]: 1.49 (0.49, 4.53) | PFS HR (95% CI) [11]: 0.88 (0.35, 2.26) | OS median, months (95% CI) [12]: 8.3 (4.9, 15.6+) months | PFS median, months (95% CI) [12]: 2.5 (1.9, 3.5) months | OS median, months (95% CI) [13]: 8.1 (5.7, 10.7+) months | PFS median, months (95% CI) [13]: 3.4 (1.6, 4.6) months | OS HR (95% CI) [14]: 0.73 (0.26, 2.01) | PFS HR (95% CI) [14]: 0.93 (0.45, 1.90) | OS median, months (95% CI) [15]: 8.1 (6.3, 14.8+) months | PFS median, months (95% CI) [15]: 3.3 (2.3, 3.7) months | OS median, months (95% CI) [16]: 5.7 (2.7, 12.4) months | PFS median, months (95% CI) [16]: 1.9 (1.6, 2.7) months | OS HR (95% CI) [17]: 1.58 (0.65, 3.83) | PFS HR (95% CI) [17]: 1.24 (0.62, 2.49) | OS median, months (95% CI) [18]: 6.3 (3.4, 15.6+) months | PFS median, months (95% CI) [18]: 2.1 (1.8, 3.0) months | OS median, months (95% CI) [19]: 8.3 (6.3, 14.8+) months | PFS median, months (95% CI) [19]: 3.4 (1.8, 4.9) months | OS HR (95% CI) [20]: 0.59 (0.24, 1.43) | PFS HR (95% CI) [20]: 0.68 (0.37, 1.28) | OS median, months (95% CI) (FANCD2 rs2272125 T/G): 7.2 (2.7, 7.8+) months | PFS median, months (95% CI) (FANCD2 rs2272125 T/G): 2.8 (1.6, 6.6+) months | OS HR (95% CI)‡ (FANCD2 rs2272125 T/G vs T/T): 1.38 (0.39, 4.90) | PFS HR (95% CI) ‡ (FANCD2 rs2272125 T/G vs T/T): 0.91 (0.35, 2.35) | OS HR (95% CI)† (FANCD2 rs2272125 T/G vs T/T): 1.66 (0.47, 5.83) | PFS HR (95% CI) † (FANCD2 rs2272125 T/G vs T/T): 0.98 (0.38, 2.51) | OS median, months (95% CI) (FANCD2 rs2272125 T/T): 8.3 (5.7, 15.6+) months | PFS median, months (95% CI) (FANCD2 rs2272125 T/T): 2.7 (2.1, 3.4) months | OS median, months (95% CI) (FANCD2 rs6792811 A/A): 8.7 (5.4, 14.8+) months | PFS median, months (95% CI) (FANCD2 rs6792811 A/A): 2.9 (2.1, 4.2) months | OS median, months (95% CI) [21]: 7.2 (3.3, 15.6+) months | PFS median, months (95% CI) [21]: 2.1 (1.5, 3.4) months | OS HR (95% CI)‡ [22]: 1.17 (0.48, 2.87) | PFS HR (95% CI) ‡ [22]: 1.43 (0.74, 2.74) | OS HR (95% CI)† [22]: 1.27 (0.52, 3.08) | PFS HR (95% CI) † [22]: 1.29 (0.68, 2.47) | Median OS (months) (JPN TAS-102 cohort, XRCC3 rs861539 G/G (n = 35)): 6.3 months | OS median, months (95% CI) (PCNA rs25406 A/A): 8.7 (5.3, 10.7+) months | PFS median, months (95% CI) (PCNA rs25406 A/A): 2.5 (1.4, 4.6) months | OS HR (95% CI)‡ (PCNA rs25406 A/A vs G/G): 0.55 (0.17, 1.84) | PFS HR (95% CI) ‡ (PCNA rs25406 A/A vs G/G): 0.65 (0.28, 1.51) | OS HR (95% CI)† (PCNA rs25406 A/A vs G/G): 0.67 (0.21, 2.19) | PFS HR (95% CI) † (PCNA rs25406 A/A vs G/G): 0.89 (0.39, 2.03) | OS median, months (95% CI) (PCNA rs25406 Any A): 8.1 (5.7, 15.6+) months | PFS median, months (95% CI) (PCNA rs25406 Any A): 3.3 (2.1, 3.5) months | OS HR (95% CI)‡ (PCNA rs25406 Any A vs G/G): 0.54 (0.22, 1.35) | PFS HR (95% CI) ‡ (PCNA rs25406 Any A vs G/G): 0.53 (0.27, 1.06) | OS HR (95% CI)† (PCNA rs25406 Any A vs G/G): 0.64 (0.26, 1.56) | PFS HR (95% CI) † (PCNA rs25406 Any A vs G/G): 0.74 (0.39, 1.42) | OS median, months (95% CI) (PCNA rs25406 G/A): 8.1 (5.7, 15.6+) months | PFS median, months (95% CI) (PCNA rs25406 G/A): 3.4 (1.9, 3.7) months | OS HR (95% CI)‡ (PCNA rs25406 G/A vs G/G): 0.54 (0.19, 1.52) | PFS HR (95% CI) ‡ (PCNA rs25406 G/A vs G/G): 0.46 (0.21, 1.02)
